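Protocol summary: plate cells (96-well), add compound at 5 concentrations, incubate 48 h, interpolate endpoints linearly. GI50: concentration for 50% inhibition of growth.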 Active and inactive are the calls of the source. Rule as the data show it: active = GI50 up to about 1.1 µM and inactive = higher.
Experiments:
Experiment in all cases: DTP human tumour cell line panel, 48 h
[1] = tested on: Malme-3M
[2] = tested on: UACC-62
[3] = tested on: LOX IMVI
[4] = tested on: SK-MEL-2
[5] = tested on: NCI-H522
[6] = tested on: HOP-92
[7] = tested on: HCC 2998
[8] = tested on: Hs-578T
[9] = tested on: OVCAR-4
[10] = tested on: K562
[11] = tested on: NCI-H226
[12] = tested on: T47D
[13] = tested on: HL-60
[14] = tested on: RPMI-8226
[15] = tested on: 786-0
[16] = tested on: A498
[17] = tested on: SN12C
[18] = tested on: COLO 205
[19] = tested on: CCRF-CEM
[20] = tested on: UACC-257
[21] = tested on: OVCAR-8
[22] = tested on: NCI/ADR-RES
[23] = tested on: SR
[24] = tested on: MDA-N
[25] = tested on: HOP-62
[26] = tested on: TK-10
[27] = tested on: EKVX
[28] = tested on: SK-OV-3
[29] = tested on: SK-MEL-5
[30] = tested on: SF-268
[31] = tested on: OVCAR-3
[32] = tested on: A549
[33] = tested on: MDA-MB-231
[34] = tested on: U-251
[35] = tested on: KM12
[36] = tested on: SF-295
[37] = tested on: SNB-19
[38] = tested on: ACHN
[39] = tested on: HT-29
[40] = tested on: HCT-15
[41] = tested on: IGROV-1
[42] = tested on: CAKI-1
[43] = tested on: DU-145
[44] = tested on: RXF 393
[45] = tested on: PC-3
[46] = tested on: OVCAR-5
[47] = tested on: SF-539
[48] = tested on: HCT-116
[49] = tested on: SNB-75
[50] = tested on: MDA-MB-435
[51] = tested on: NCI-H23
[52] = tested on: M14
[53] = tested on: UO-31
[54] = tested on: BT-549
[55] = tested on: NCI-H460
[56] = tested on: SK-MEL-28
[57] = tested on: MOLT-4
[58] = tested on: MCF7
[59] = tested on: SW-620

Measured: GI50

C=C1c2nc3ccccc3n2C=C(c2ccc(OC)cc2)N1c1ccccc1
inactive: [1] 3.98 µM | [2] 3.67 µM | [3] 7.36 µM | [4] 5.28 µM | [5] 2.21 µM | [6] 30.2 µM | [7] 3.75 µM | [8] 14.4 µM | [9] 17.9 µM | [10] 2.62 µM | [11] 4.12 µM | [12] 6.4 µM | [13] 1.59 µM | [14] 3.65 µM | [15] 6.11 µM | [16] 31 µM | [17] 24 µM | [18] 5.36 µM | [19] 3.66 µM | [20] 13.3 µM | [21] 8.61 µM | [22] 2.34 µM | [23] 1.96 µM | [24] 1.43 µM | [25] 36.8 µM | [26] 32.7 µM | [27] 19 µM | [28] 47.8 µM | [29] 3.99 µM | [30] 50 µM | [31] 6.62 µM | [32] 5.37 µM | [33] 11.1 µM | [34] 5.31 µM | [35] 2.62 µM | [36] 3.44 µM | [37] 11.3 µM | [38] 39.7 µM | [39] 9.68 µM | [41] 5.85 µM | [42] 37.8 µM | [43] 28.6 µM | [44] 6.71 µM | [45] 9.12 µM | [46] > 78.5 µM | [47] 6.67 µM | [48] 3.95 µM | [49] 4.99 µM | [50] 1.17 µM | [51] 11.7 µM | [52] 4.43 µM | [53] 9.02 µM | [54] 6.64 µM | [55] 3.94 µM | [56] 29.6 µM | [57] 3.95 µM | [58] 4.76 µM | [59] 3.66 µM
3.1 µM: [40]

C=C1C(=O)OC2C1C(OC(=O)/C(C)=C/C)CC(O)(CCl)C1C(O)C=C(C)C21O (stereo not drawn)
inactive: [1] 2.22 µM | [2] 12.5 µM | [3] 4.89 µM | [4] 21 µM | [5] 1.43 µM | [6] 8.93 µM | [7] 12.6 µM | [8] > 62.1 µM | [9] 14.2 µM | [10] 3.78 µM | [11] 19.1 µM | [12] 11.9 µM | [13] 2.28 µM | [14] 5.68 µM | [15] 4.88 µM | [16] 23.6 µM | [17] 14.4 µM | [18] 4.58 µM | [19] 2.84 µM | [20] 12.1 µM | [21] 10.9 µM | [22] 17.9 µM | [23] 3.94 µM | [24] 14.9 µM | [25] > 46.1 µM | [26] 14.1 µM | [27] 12 µM | [28] 47.9 µM | [29] 11 µM | [30] 22.9 µM | [31] 11.9 µM | [32] 28.7 µM | [33] 15.7 µM | [34] 27.5 µM | [35] 20.5 µM | [36] 53 µM | [37] > 43.8 µM | [38] 5.79 µM | [39] 15.7 µM | [41] 14.9 µM | [42] 4.14 µM | [43] 16.5 µM | [44] 5.93 µM | [45] 21.7 µM | [46] 16.7 µM | [47] 20.6 µM | [48] 6.28 µM | [49] 27.5 µM | [50] 23 µM | [51] 13.8 µM | [52] 11.4 µM | [53] 15 µM | [54] 9.48 µM | [55] 16.7 µM | [56] 13.3 µM | [57] 3.92 µM | [58] 4.52 µM | [59] 3.85 µM
3.72 µM: [40]

Source: ChEMBL document CHEMBL1201862, “PubChem BioAssay data set” (2004)
